Assay results reported in US11981658B2, “Substituted aminopyridine compounds as EGFR inhibitors” (YUHAN CORPORATION, priority 2021, dated 2024).
Like-named read-outs stand apart in the source and are kept apart here.

Legend:
EGFR Del19/T790M/C797S = EGFR Del19/T790M/C797S (Homo sapiens, UniProt P00533, C797S/DEL746-750/T790M); test: Biochemical EGFR kinase inhibition assay (Lance Ultra TR-FRET), triple mutant del19/T790M/C797S
How it was run: (§1)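 Step 1: compound in kinase buffer, 0.003–10 μM. Step 2: kinase reaction 1 h at room temperature. Step 4: TR-FRET read at 615/665 nm; IC50 calculated.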

EGFR L858R/T790M/C797S = EGFR L858R/T790M/C797S (Homo sapiens, UniProt P00533, C797S/L858R/T790M); test: Biochemical EGFR kinase inhibition assay (Lance Ultra TR-FRET), triple mutant L858R/T790M/C797S
How it was run: as §1

EGFR Del19/C797S = EGFR Del19/C797S (Homo sapiens, UniProt P00533, C797S/DEL746-750); test: Biochemical EGFR kinase inhibition assay (Lance Ultra TR-FRET), double mutant del19/C797S
How it was run: as §1

EGFR L858R/C797S = EGFR L858R/C797S (Homo sapiens, UniProt P00533, C797S/L858R); test: Biochemical EGFR kinase inhibition assay (Lance Ultra TR-FRET), double mutant L858R/C797S
How it was run: as §1

EGFR wildtype (WT) = EGFR wildtype (WT) (Homo sapiens, UniProt P00533); test: Biochemical EGFR kinase inhibition assay (Lance Ultra TR-FRET), wildtype
How it was run: as §1

[1] = ATP at Km, read-out: IC50 Del19/T790M/C797S (nM), Km ATP
[2] = IC50 Del19/T790M/C797S (nM), 100 μM ATP
[3] = ATP at Km, read-out: IC50 L858R/T790M/C797S (nM), Km ATP
[4] = IC50 L858R/T790M/C797S (nM), 100 μM ATP
[5] = ATP at Km, read-out: IC50 Del19/C797S (nM), Km ATP
[6] = IC50 Del19/C797S (nM), 100 μM ATP
[7] = ATP at Km, read-out: IC50 L858R/C797S (nM), Km ATP
[8] = IC50 L858R/C797S (nM), 100 μM ATP
[9] = ATP at Km, read-out: IC50 WT (nM), Km ATP
[10] = Km ATP, read-out: IC50 Del19/T790M/C797S (nM), Km ATP
[11] = Km ATP, read-out: IC50 L858R/T790M/C797S (nM), Km ATP
[12] = Km ATP, read-out: IC50 Del19/C797S (nM), Km ATP
[13] = Km ATP, read-out: IC50 L858R/C797S (nM), Km ATP
[14] = Km ATP, read-out: IC50 WT (nM), Km ATP
[15] = Km ATP, read-out: IC50 Del19/T790M/C797S (nM) Km ATP
[16] = Km ATP, read-out: IC50 L858R/T790M/C797S (nM) Km ATP
[17] = Km ATP, read-out: IC50 Del19/C797S (nM) Km ATP
[18] = Km ATP, read-out: IC50 L858R/C797S (nM) Km ATP
[19] = Km ATP, read-out: IC50 WT (nM) Km ATP

Sequence of EGFR wildtype (WT) (P00533 25-1210): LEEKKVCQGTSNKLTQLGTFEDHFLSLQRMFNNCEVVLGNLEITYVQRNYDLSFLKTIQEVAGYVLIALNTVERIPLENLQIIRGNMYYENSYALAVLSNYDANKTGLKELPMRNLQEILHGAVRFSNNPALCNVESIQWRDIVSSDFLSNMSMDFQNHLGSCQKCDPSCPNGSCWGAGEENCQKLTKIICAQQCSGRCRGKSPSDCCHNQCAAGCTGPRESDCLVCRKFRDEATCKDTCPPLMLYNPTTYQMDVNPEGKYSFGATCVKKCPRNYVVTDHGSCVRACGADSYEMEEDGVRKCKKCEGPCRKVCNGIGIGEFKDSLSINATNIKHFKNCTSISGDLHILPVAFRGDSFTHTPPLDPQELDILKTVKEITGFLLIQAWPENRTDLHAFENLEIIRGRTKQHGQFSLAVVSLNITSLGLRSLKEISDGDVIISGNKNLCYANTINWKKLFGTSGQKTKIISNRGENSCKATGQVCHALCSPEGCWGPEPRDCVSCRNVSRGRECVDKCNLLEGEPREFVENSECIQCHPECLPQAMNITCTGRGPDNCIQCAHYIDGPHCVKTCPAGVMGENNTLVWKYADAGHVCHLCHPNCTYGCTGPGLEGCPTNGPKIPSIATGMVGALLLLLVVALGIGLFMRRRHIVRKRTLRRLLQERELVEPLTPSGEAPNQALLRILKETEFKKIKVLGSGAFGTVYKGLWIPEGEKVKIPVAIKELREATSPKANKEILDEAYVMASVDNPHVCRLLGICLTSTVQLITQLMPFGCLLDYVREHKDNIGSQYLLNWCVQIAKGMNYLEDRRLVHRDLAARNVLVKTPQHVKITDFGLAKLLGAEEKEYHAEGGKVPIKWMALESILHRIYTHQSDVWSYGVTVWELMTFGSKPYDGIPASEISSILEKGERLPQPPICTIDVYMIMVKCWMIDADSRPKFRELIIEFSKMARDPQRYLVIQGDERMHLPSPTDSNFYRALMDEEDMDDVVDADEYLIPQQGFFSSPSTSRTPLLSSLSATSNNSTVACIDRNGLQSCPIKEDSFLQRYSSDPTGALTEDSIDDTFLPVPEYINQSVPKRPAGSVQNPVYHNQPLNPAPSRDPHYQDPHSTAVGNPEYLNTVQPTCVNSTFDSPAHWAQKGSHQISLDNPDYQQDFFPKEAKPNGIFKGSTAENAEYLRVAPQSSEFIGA
Sequence of EGFR L858R/T790M/C797S (P00533 25-1210 T790M/C797S/L858R): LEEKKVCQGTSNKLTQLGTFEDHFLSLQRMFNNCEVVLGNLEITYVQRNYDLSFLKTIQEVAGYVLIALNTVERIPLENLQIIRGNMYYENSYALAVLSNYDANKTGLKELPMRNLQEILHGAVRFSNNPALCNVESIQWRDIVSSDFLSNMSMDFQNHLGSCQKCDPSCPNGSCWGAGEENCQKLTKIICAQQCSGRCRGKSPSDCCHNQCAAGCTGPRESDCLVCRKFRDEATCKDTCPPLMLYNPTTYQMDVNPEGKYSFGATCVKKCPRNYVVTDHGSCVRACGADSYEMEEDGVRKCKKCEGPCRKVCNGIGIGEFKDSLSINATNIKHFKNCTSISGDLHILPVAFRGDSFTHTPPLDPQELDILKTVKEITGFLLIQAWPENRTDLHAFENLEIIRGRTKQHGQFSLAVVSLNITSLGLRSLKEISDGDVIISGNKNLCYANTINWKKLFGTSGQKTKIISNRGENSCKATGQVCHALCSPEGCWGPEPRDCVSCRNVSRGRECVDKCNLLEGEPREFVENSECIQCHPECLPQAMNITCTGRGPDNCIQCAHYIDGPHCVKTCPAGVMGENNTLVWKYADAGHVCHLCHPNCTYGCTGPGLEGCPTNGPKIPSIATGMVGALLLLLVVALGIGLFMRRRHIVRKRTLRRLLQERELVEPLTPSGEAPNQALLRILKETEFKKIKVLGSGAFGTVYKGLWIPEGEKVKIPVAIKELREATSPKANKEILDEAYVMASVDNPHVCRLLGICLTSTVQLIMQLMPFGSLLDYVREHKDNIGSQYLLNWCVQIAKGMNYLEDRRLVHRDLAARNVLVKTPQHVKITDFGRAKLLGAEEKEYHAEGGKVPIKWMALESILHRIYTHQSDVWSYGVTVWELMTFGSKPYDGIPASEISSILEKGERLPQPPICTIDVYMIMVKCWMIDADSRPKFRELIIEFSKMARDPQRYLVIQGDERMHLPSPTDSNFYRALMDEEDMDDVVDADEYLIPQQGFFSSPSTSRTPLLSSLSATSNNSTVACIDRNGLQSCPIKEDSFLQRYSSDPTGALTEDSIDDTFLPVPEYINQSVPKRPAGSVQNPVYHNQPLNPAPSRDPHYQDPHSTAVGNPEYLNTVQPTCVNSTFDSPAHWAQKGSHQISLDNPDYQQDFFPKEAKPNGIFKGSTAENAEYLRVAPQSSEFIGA
Sequence of EGFR Del19/T790M/C797S (P00533 with tags, fused parts or gaps DEL746-750/T790M/C797S): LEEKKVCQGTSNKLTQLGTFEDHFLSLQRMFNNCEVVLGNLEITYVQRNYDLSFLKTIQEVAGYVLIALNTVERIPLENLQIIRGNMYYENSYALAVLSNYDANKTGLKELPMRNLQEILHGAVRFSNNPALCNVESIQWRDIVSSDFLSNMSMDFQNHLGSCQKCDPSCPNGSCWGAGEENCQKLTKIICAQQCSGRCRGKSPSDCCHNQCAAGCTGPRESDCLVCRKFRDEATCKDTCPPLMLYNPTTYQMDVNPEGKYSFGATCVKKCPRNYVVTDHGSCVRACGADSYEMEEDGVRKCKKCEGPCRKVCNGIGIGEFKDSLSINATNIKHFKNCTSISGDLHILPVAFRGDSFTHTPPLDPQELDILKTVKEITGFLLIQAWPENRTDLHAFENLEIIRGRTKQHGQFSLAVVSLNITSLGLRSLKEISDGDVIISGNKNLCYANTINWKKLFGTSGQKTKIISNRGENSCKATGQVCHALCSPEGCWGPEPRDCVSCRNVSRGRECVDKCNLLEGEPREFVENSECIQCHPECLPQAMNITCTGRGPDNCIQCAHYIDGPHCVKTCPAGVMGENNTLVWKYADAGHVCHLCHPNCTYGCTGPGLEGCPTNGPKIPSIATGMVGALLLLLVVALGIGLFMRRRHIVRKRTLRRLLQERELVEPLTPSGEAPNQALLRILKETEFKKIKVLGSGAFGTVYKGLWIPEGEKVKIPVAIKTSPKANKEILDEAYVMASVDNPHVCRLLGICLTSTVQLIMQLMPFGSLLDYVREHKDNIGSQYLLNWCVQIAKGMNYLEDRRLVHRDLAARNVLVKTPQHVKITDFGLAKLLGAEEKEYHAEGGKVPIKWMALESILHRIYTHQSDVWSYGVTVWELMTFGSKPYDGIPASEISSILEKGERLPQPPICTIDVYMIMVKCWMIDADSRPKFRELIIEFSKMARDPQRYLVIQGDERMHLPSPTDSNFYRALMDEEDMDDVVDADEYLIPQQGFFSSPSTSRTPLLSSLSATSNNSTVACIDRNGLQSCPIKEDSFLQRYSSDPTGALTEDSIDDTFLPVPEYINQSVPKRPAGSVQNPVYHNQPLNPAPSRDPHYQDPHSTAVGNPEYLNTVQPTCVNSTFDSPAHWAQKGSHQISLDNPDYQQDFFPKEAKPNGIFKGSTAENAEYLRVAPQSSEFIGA
Sequence of EGFR L858R/C797S (P00533 25-1210 C797S/L858R): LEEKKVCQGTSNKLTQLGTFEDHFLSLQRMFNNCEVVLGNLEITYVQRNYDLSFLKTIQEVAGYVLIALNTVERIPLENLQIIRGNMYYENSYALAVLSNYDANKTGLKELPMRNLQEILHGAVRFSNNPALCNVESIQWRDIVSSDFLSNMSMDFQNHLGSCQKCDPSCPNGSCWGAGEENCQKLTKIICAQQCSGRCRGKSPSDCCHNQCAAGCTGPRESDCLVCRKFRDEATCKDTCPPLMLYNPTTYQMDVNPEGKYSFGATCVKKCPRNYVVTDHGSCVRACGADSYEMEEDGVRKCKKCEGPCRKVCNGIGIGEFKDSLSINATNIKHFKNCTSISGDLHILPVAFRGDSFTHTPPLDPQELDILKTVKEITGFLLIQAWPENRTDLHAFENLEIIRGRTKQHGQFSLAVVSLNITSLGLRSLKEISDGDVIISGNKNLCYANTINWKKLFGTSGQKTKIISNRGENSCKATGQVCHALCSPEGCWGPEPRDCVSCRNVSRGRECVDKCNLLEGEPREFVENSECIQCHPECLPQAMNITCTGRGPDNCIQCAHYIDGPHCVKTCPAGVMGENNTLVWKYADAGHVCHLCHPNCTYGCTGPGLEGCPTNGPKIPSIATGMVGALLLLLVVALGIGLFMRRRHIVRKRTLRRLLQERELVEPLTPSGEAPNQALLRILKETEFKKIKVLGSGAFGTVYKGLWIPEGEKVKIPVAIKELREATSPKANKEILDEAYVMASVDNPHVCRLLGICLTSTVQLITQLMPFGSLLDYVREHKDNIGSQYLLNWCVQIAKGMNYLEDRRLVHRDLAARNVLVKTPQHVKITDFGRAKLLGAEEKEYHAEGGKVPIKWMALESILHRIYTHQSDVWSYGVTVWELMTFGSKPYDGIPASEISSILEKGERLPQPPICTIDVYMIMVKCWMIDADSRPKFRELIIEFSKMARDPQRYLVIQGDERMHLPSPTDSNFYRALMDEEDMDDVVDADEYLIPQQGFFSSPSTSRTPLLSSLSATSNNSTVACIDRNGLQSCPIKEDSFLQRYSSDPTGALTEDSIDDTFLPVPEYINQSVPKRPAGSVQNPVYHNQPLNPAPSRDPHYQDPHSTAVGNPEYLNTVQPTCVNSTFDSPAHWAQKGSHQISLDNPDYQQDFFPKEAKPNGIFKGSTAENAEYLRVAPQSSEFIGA

Compound | IC50 (EGFR Del19/T790M/C797S; [1]) [nM] | IC50 (EGFR Del19/T790M/C797S; [2]) [nM] | IC50 (EGFR L858R/T790M/C797S; [3]) [nM] | IC50 (EGFR L858R/T790M/C797S; [4]) [nM] | IC50 (EGFR Del19/C797S; [5]) [nM] | IC50 (EGFR Del19/C797S; [6]) [nM] | IC50 (EGFR L858R/C797S; [7]) [nM] | IC50 (EGFR L858R/C797S; [8]) [nM] | IC50 (EGFR wildtype (WT); [9]) [nM] | IC50 (EGFR wildtype (WT); IC50 WT (nM), 100 μM ATP) [nM] | IC50 (EGFR Del19/T790M/C797S; [10]) [nM] | IC50 (EGFR L858R/T790M/C797S; [11]) [nM] | IC50 (EGFR Del19/C797S; [12]) [nM] | IC50 (EGFR L858R/C797S; [13]) [nM] | IC50 (EGFR wildtype (WT); [14]) [nM] | IC50 (EGFR Del19/T790M/C797S; [15]) [nM] | IC50 (EGFR L858R/T790M/C797S; [16]) [nM] | IC50 (EGFR Del19/C797S; [17]) [nM] | IC50 (EGFR L858R/C797S; [18]) [nM] | IC50 (EGFR wildtype (WT); [19]) [nM]
Nc1cccc(C#Cc2cnc(Nc3ccnc(-c4cnn(S(=O)(=O)C5CC5)c4)n3)cc2N[C@@H]2CCC[C@H](O)C2)c1 [Example 169, (1 S,3R)-3-((5-((3-Aminophenyl)ethynyl)-2-((2-(1-(cyclopropylsulfonyl)-1H-pyrazol-4-yl)pyrimidin-4-yl)amino)pyridin-4-yl)amino)cyclohexan-1-ol] | 7.1 | 3.1 | 2.6 | 6.8 | 4.7 | 10.5 | 30.6 | 391 | 238 | > 10000 |  |  |  |  |  |  |  |  |  | 
CC(O)C1CCN(c2cc(Nc3ccnc(-c4cnn(S(=O)(=O)C5CC5)c4)n3)ncc2C#Cc2cnn(C(F)(F)F)c2)CC1 (stereo not drawn) [Example 328, 1-(1-(2-((2-(1-(Cyclopropylsulfonyl)-1H-pyrazol-4-yl)pyrimidin-4-yl)amino)-5-((1-(trifluoromethyl)-1H-pyrazol-4-yl)ethynyl)pyridin-4-yl)piperidin-4-yl)ethan-1-ol] | 5.3 | 3.1 | 1 | 22.7 | 36.6 | 648 | 25.8 | 47.4 | 162 | > 10000 |  |  |  |  |  |  |  |  |  | 
O=S(=O)(C1CC1)n1cc(-c2nccc(Nc3cc(N[C@H]4CC[C@@H](CO)CC4)c(C#Cc4cnn(CC(F)(F)F)c4)cn3)n2)cn1 [Example 340, ((1s,4s)-4-((2-((2-(1-(Cyclopropylsulfonyl)-1H-pyrazol-4-yl)pyrimidin-4-yl)amino)-5-((1-(2,2,2-trifluoroethyl)-1H-pyrazol-4-yl)ethynyl)pyridin-4-yl)amino)cyclohexyl)methanol] |  | 2 |  | 1.6 |  | 7.3 |  | 40.8 |  | > 10000 | 1.6 | 0.7 | 5 | 10.5 | 26 |  |  |  |  | 
Cn1cnc(C#Cc2cnc(Nc3ccnc(-c4cnn(S(=O)(=O)C5CC5)c4)n3)cc2N[C@@H]2CC[C@H](O)C2)c1 [Example 223, (1S,3R)-3-((2-((2-(1-(Cyclopropylsulfonyl)-1H-pyrazol-4-yl)pyrimidin-4-yl)amino)-5-((1-methyl-1H-imidazol-4-yl)ethynyl)pyridin-4-yl)amino)cyclopentan-1-ol] |  | 0.5 |  | 0.8 |  | 6.7 |  | 44.7 |  | > 10000 |  |  |  |  |  |  |  |  |  | 
CNC1CCN(c2cc(Nc3ccnc(-c4cnn(S(=O)(=O)C5CC5)c4)n3)ncc2C#Cc2ccn(C)n2)CC1 [Example 140, 2-(1-(Cyclopropylsulfonyl)-1H-pyrazol-4-yl)-N-(5-((1-methyl-1H-pyrazol-3-yl)ethynyl)-4-(4-(methylamino)piperidin-1-yl)pyridin-2-yl)pyrimidin-4-amine] |  | 1.8 |  | 6.4 |  | 176 |  | 887 |  | > 10000 |  |  |  |  |  | 1.3 | 1.3 | 114 | 23.2 | 622
CC1(CO)CCN(c2cc(Nc3ccnc(-c4cnn(S(=O)(=O)C5CC5)c4)n3)ncc2C#Cc2ccc(CN3CCOCC3)s2)CC1 [Example 191, (1-(2-((2-(1-(Cyclopropylsulfonyl)-1H-pyrazol-4-yl)pyrimidin-4-yl)amino)-5-((5-(morpholinomethyl)thiophen-2-yl)ethynyl)pyridin-4-yl)-4-methylpiperidin-4-yl)methanol] | 3 | 7 | 1.5 | 9.8 | 2.2 | 4.3 | 3.2 | 21.7 | 8.1 | 3580 |  |  |  |  |  |  |  |  |  | 
CC(=O)N1CCC(n2cc(C#Cc3cnc(Nc4ccnc(-c5cnn(S(=O)(=O)C6CC6)c5)n4)cc3N3CCC(NCCN(C)C)CC3)cn2)CC1 [Example 139, 1-(4-(4-((6-((2-(1-(Cyclopropylsulfonyl)-1H-pyrazol-4-yl)pyrimidin-4-yl)amino)-4-(4-((2-(dimethylamino)ethyl)amino)piperidin-1-yl)pyridin-3-yl)ethynyl)-1H-pyrazol-1-yl)piperidin-1-yl)ethan-1-one] |  | 0.4 |  | 0.4 |  | 1.4 |  | 8.2 |  | 1580 |  |  |  |  |  | 0.4 | 0.1 | 0.9 | 0.9 | 5.4
CC1(CO)CCN(c2cc(Nc3ccnc(-c4cnn(S(=O)(=O)C5CC5)c4)n3)ncc2C#CC2CC(C(C)(C)O)C2)CC1 (stereo not drawn) [Example 266, 2-(3-((6-((2-(1-(Cyclopropylsulfonyl)-1H-pyrazol-4-yl)pyrimidin-4-yl)amino)-4-(4-(hydroxymethyl)-4-methylpiperidin-1-yl)pyridin-3-yl)ethynyl)cyclobutyl)propan-2-ol] | 1 | 0.8 | 0.4 | 0.4 | 1.1 | 2.1 | 0.9 | 5.4 | 7.2 | 1230 |  |  |  |  |  |  |  |  |  | 
CN(C)CC1CCN(c2cc(Nc3ccnc(-c4cnn(S(=O)(=O)C5CC5)c4)n3)ncc2C#Cc2cnn(C)c2)CC1 [Example 295, 2-(1-(Cyclopropylsulfonyl)-1H-pyrazol-4-yl)-N-(4-(4-((dimethylamino)methyl)piperidin-1-yl)-5-((1-methyl-1H-pyrazol-4-yl)ethynyl)pyridin-2-yl)pyrimidin-4-amine] |  | 0.8 |  | 2.4 |  | 9.9 |  | 68.2 |  | > 10000 |  |  |  |  |  |  |  |  |  | 
CC1(C#Cc2cnc(Nc3ccnc(-c4cnn(S(=O)(=O)C5CC5)c4)n3)cc2N2CCC(C)(CO)CC2)CC1 [Example 358, (1-(2-((2-(1-(Cyclopropylsulfonyl)-1H-pyrazol-4-yl)pyrimidin-4-yl)amino)-5-((1-methylcyclopropyl)ethynyl)pyridin-4-yl)-4-methylpiperidin-4-yl)methanol] |  | 1.7 |  | 1.6 |  | 3.7 |  | 30.2 |  | 6280 | 1.2 | 0.7 | 1.9 | 3.8 | 22.9 |  |  |  |  | 

More lines, in order of falling IC50 (EGFR Del19/T790M/C797S; [2]), values ahead:

IC50 (EGFR Del19/T790M/C797S; [1]) [nM] | IC50 (EGFR Del19/T790M/C797S; [2]) [nM] | IC50 (EGFR L858R/T790M/C797S; [3]) [nM] | IC50 (EGFR L858R/T790M/C797S; [4]) [nM] | IC50 (EGFR Del19/C797S; [5]) [nM] | IC50 (EGFR Del19/C797S; [6]) [nM] | IC50 (EGFR L858R/C797S; [7]) [nM] | IC50 (EGFR L858R/C797S; [8]) [nM] | IC50 (EGFR wildtype (WT); [9]) [nM] | IC50 (EGFR wildtype (WT); IC50 WT (nM), 100 μM ATP) [nM] | IC50 (EGFR Del19/T790M/C797S; [10]) [nM] | IC50 (EGFR L858R/T790M/C797S; [11]) [nM] | IC50 (EGFR Del19/C797S; [12]) [nM] | IC50 (EGFR L858R/C797S; [13]) [nM] | IC50 (EGFR wildtype (WT); [14]) [nM] | IC50 (EGFR Del19/T790M/C797S; [15]) [nM] | IC50 (EGFR L858R/T790M/C797S; [16]) [nM] | IC50 (EGFR Del19/C797S; [17]) [nM] | IC50 (EGFR L858R/C797S; [18]) [nM] | IC50 (EGFR wildtype (WT); [19]) [nM] | Compound
 | 9 |  | 31.1 |  | 114 |  | 350 |  | > 10000 |  |  |  |  |  |  |  |  |  |  | Cn1cc(C#Cc2cnc(Nc3ccnc(-c4cnn(S(=O)(=O)C5CC5)c4)n3)cc2N2CCC(F)(C(F)(F)F)CC2)cn1 [Example 66, 2-(1-(Cyclopropylsulfonyl)-1H-pyrazol-4-yl)-N-(4-(4-fluoro-4-(trifluoromethyl)piperidin-1-yl)-5-((1-methyl-1H-pyrazol-4-yl)ethynyl)pyridin-2-yl)pyrimidin-4-amine]
 | 1.8 |  | 26.1 |  | 37.7 |  | 286 |  | > 10000 |  |  |  |  |  |  |  |  |  |  | Cn1cnc(C#Cc2cnc(Nc3ccnc(-c4cnn(S(=O)(=O)C5CC5)c4)n3)cc2NCC(C)(C)CO)c1 [Example 224, 3-((2-((2-(1-(Cyclopropylsulfonyl)-1H-pyrazol-4-yl)pyrimidin-4-yl)amino)-5-((1-methyl-1H-imidazol-4-yl)ethynyl)pyridin-4-yl)amino)-2,2-dimethylpropan-1-ol]
0.9 | 1.4 | 0.4 | 1.8 | 0.8 | 0.7 | 0.9 | 14.7 | 4.7 | 2170 |  |  |  |  |  |  |  |  |  |  | CC1(CO)CCN(c2cc(Nc3ccnc(-c4cnn(S(=O)(=O)C5CC5)c4)n3)ncc2C#Cc2cnn(CC3CCOC3)c2)CC1 (stereo not drawn) [Example 243, (1-(2-((2-(1-(Cyclopropylsulfonyl)-1H-pyrazol-4-yl)pyrimidin-4-yl)amino)-5-((1-((tetrahydrofuran-3-yl)methyl)-1H-pyrazol-4-yl)ethynyl)pyridin-4-yl)-4-methylpiperidin-4-yl)methanol]
 | 0.3 |  | 0.6 |  | 1.3 |  | 12.9 |  | 2530 | 0.2 | 0.1 | 1.4 | 2.1 | 7.5 |  |  |  |  |  | CC1(O)CCN(c2cc(Nc3ccnc(-c4cnn(S(=O)(=O)C5CC5)c4)n3)ncc2C#Cc2ncc(CN3CCOCC3)cn2)CC1 [Example 364, 1-(2-((2-(1-(Cyclopropylsulfonyl)-1H-pyrazol-4-yl)pyrimidin-4-yl)amino)-5-((5-(morpholinomethyl)pyrimidin-2-yl)ethynyl)pyridin-4-yl)-4-methylpiperidin-4-ol]
